{"source": "patent US20050148495A1", "about": "“Methods and materials including for treating acne” (priority 2003, published 2005)", "key": {"in vivo": {"test": "in vivo", "details": "both, rat, plasma, po, 10 mg/kg, mean; for bioavailability: % F (bioavailability); for AUC: AUCall"}, "[1]": {"test": "Stability in aqueous solution as indicated by biological activity", "format": "physicochemical", "details": "4° C.", "method": "In additional studies, a variety of formulations of XMP.629 were tested for stability under various temperatures, such as 25° C., 40° C., and 50° C., and at various time points, such as 0.5, 1, and 2 months."}, "Hanford minipigs": {"system": "Hanford minipigs", "test": "Minipig subchronic dermal toxicity test with toxicokinetics", "format": "in vivo", "details": "one 70 μg/kg/day female", "protocol": "XMP.629 was evaluated for potential toxicity when administered by a single daily dermal application to Hanford minipigs over the course of one month. The study group design and dosage levels tested were as follows:\nThe test article or placebo control was administered once daily to the dorsal surface of each animal for 29 consecutive days. General health, mortality and moribundity checks were conducted twice daily. General health examinations were performed by a veterinarian once prior to in-life initiation and weekly during the study. The animals were examined daily for overt toxic signs (post-dose observations) between one and two hours following dosing. Detailed clinical observations and individual body weights were performed weekly, beginning on study day 0, and on the day of scheduled euthanasia. Dermal scoring was performed once per week and on the day of scheduled euthanasia.\nHematology, coagulation and clinical chemistry parameters were evaluated once prior to in-life initiation (day -9) and near the conclusion of the dosing phase (day 26). Blood samples were also collected for anti-test article analyses on study day 26 and toxicokinetic (TK) analyses on study days 0 and 27. Ophthalmological examinations were performed once prior to in-life initiation and just prior to the end of the dosing phase. […]"}, "Corynebacterium": {"system": "Corynebacterium", "test": "microbe, parasite or virus in culture", "format": "cell-based", "method": "Control tubes containing only water or formulation buffer were prepared for each isolate. Initial growth controls were determined by removing 10 μL from the water control tube and diluting it by 100 fold. From this dilution, 10 μL was used for inoculation and for spreading over the surface onto Laked Blood Agar (LBA) (Anaerobe Systems, Morgan Hill, Calif.) plates. The tubes and plates were incubated in an anaerobic atmosphere at 37° C. for 48 h. […] MBC50 and 90 values represent where 50 and 90%, respectively, of the tested strain's MBC values are equal to or less than the indicated concentration."}, "P. avidum": {"system": "P. avidum", "format": "cell-based, Propionibacterium avidum", "protocol": "This example addresses studies relating to the antimicrobial activities of XMP.629. An in vitro assessment of antibiotic activity in XMP.629 and various known antibiotics against a representative panel of bacterial strains associated with acne was conducted. A broth dilution methodology was employed using guidelines established by National Committee for Clinical Laboratory Standards (NCCLS) for anaerobic organisms to establish an antibacterial profile for XMP.629. Assays to determine the minimal bactericidal concentrations (MBC) and minimal inhibitory concentration (MIC) were conducted for XMP.629 and other known antibiotics. Furthermore, test to determine post antibiotic effect (PAE) of XMP.629 were done.\nInoculum from a representative panel of bacterial strains associated with acne, such as P. acnes, P. avidum, P. granulosum, and Staphylococcus epidermis was prepared by suspending approximately 5-10 isolated bacterial colonies in pre-reduced MicroScan® Inoculum Water (Dade Behring, Deerfield, Ill.), and growing the bacterial suspension to log phase (approximately 48 hrs). An inoculum of between 1-5×10^6/mL was achieved by adding 100 μL of the suspension to 25 mL Brain Heart Infusion Broth (BHI) (Anaerobe Systems, Morgan Hill, Calif.).\nA stock solution of XMP.629 dissolved in water at a concentration of 4.0 mg/mL was prepared. Dilute solutions of XMP.629 at concentrations ranging from about 1.25 to about 160 μg/mL were made in either water or formulation buffer (130 mM sodium chloride, 0.2% P103 (poloxamer 333), and 0.10% EDTA, pH 7.3). Aqueous stock solutions of clindamycin and erythromycin were prepared in water.\nEach tube, containing a final volume of 1 mL, was mixed by vortexing. Control tubes containing only water or formulation buffer were prepared for each isolate. Initial growth controls were determined by removing 10 μL from the water control tube and diluting it by 100 fold. From this dilution, 10 μL was used for inoculation and for spreading over the surface onto Laked Blood Agar (LBA) (Anaerobe Systems, Morgan Hill, Calif.) plates. The tubes and plates were incubated in an anaerobic atmosphere at 37° C. for 48 h. After incubation, the tubes were mixed and 10 μL samples were removed from each tube for additional plating. These plates were then further incubated in an anaerobic atmosphere at 37° C. for 48-72 h and the resulting colonies were counted. After adjusting for the dilution factor, the lowest concentration of drug or combination of drugs reducing the inoculum by ≧99.9% was considered to be the minimum bactericidal concentration (MBC). MBC50 and 90 values represent where 50 and 90%, respectively, of the tested strain's MBC values are equal to or less than the indicated concentration. The lowest concentration of antibiotic(s) that inhibited visible growth in the culture tubes was considered to be the minimal inhibitory concentration (MIC).\nFor comparison, additional Propionibacterium strains, were tested."}, "[2]": {"details": "10 mg/kg XMP.629 acetate oral gavage in 5% glucose"}, "[3]": {"details": "10 mg/kg XMP.629 acetate oral gavage in distilled water"}, "[4]": {"details": "RMA 8375, Formulation Buffer Solvent, Study 1"}, "[5]": {"details": "RMA 8375, Formulation Buffer Solvent, Study 2"}, "[6]": {"details": "RMA 8375, Water Solvent, Study 1"}, "[7]": {"details": "RMA 8375, Water Solvent, Study 2"}, "[8]": {"details": "RMA 8376, Formulation Buffer Solvent, Study 1"}, "[9]": {"details": "RMA 8376, Formulation Buffer Solvent, Study 2"}, "[10]": {"details": "RMA 8376, Water Solvent, Study 1"}, "[11]": {"details": "RMA 8376, Water Solvent, Study 2"}, "[12]": {"details": "RMA 9497, Formulation Buffer Solvent, Study 1"}, "[13]": {"details": "RMA 9497, Formulation Buffer Solvent, Study 2"}, "[14]": {"details": "RMA 9497, Water Solvent, Study 1"}, "[15]": {"details": "RMA 9497, Water Solvent, Study 2"}, "[16]": {"details": "RMA 13009, Formulation Buffer Solvent, Study 1"}, "[17]": {"details": "RMA 13009, Formulation Buffer Solvent, Study 2"}, "[18]": {"details": "RMA 13009, Water Solvent, Study 1"}, "[19]": {"details": "RMA 13009, Water Solvent, Study 2"}}, "note": "Where two headings read alike, the source gives them in different places. Non-standard residues stand in square brackets, D forms with d. Residues, ends and D or L forms follow the SMILES beside them. d1Nal = N[C@H](Cc1cccc2ccccc12)C(=O)O", "data": [{"smiles": "CC(C)C[C@@H](NC(=O)[C@H](N)CCCCN)C(=O)N[C@H](Cc1ccccc1)C(=O)N[C@H](CCCNC(=N)N)C(=O)N[C@H](Cc1cccc2ccccc12)C(=O)N[C@H](CCC(N)=O)C(=O)N[C@H](C)C(=O)N[C@H](CCCCN)C(=O)N[C@H](Cc1cccc2ccccc12)C(N)=O", "note": "[XMP.629, NH2-lys-leu-phe-arg-(3-(1-naphthyl)-ala)-gln-ala-lys-(3-(1-naphthyl)-ala)-CONH2] (H-[dK][dL][dF][dR][d1Nal][dQ][dA][dK][d1Nal]-NH2)", "values": [{"measurement": "bioavailability", "setting": "in vivo; [2]", "result": 0.0044, "unit": "%"}, {"measurement": "bioavailability", "setting": "in vivo; [3]", "result": 0.0015, "unit": "%"}, {"measurement": "AUC", "setting": "in vivo; [2]", "result": 1.67, "unit": "ng·h/mL"}, {"measurement": "AUC", "setting": "in vivo; [3]", "result": 0.55, "unit": "ng·h/mL"}, {"measurement": "Cmax", "setting": "in vivo; [2]", "result": 4.6, "unit": "ng/mL"}, {"measurement": "Cmax", "setting": "in vivo; [3]", "result": 1.5, "unit": "ng/mL"}, {"measurement": "Tmax", "setting": "in vivo; [2]", "result": 11.4, "unit": "min"}, {"measurement": "Tmax", "setting": "in vivo; [3]", "result": 8.4, "unit": "min"}, {"measurement": "stable in aqueous solution as indicated by biological activity", "setting": "[1]", "result": "greater than 6 months"}, {"measurement": "Dermal observations", "setting": "Hanford minipigs", "result": "single incidence of grade 2 (well defined) erythema"}, {"measurement": "MIC90, XMP.629 data reported as MBC values", "setting": "Corynebacterium", "result": 0.25, "unit": "µg/mL"}, {"measurement": "MIC90, XMP.629 data reported as MBC values", "setting": "Corynebacterium; in FB (formulation buffer)", "result": "<0.25", "unit": "µg/mL"}, {"measurement": "MBC50", "setting": "P. avidum; P. avidum, 4 strains", "result": 1, "unit": "µg/mL"}, {"measurement": "MBC90", "setting": "P. avidum; P. avidum, 4 strains", "result": 2, "unit": "µg/mL"}, {"measurement": "MBC Range", "setting": "P. avidum; P. avidum, 4 strains, in µg/mL", "result": "1-2"}, {"measurement": "MBC", "setting": "P. avidum; [4]", "result": 0.50, "unit": "µg/mL"}, {"measurement": "MIC", "setting": "P. avidum; [4]", "result": 0.25, "unit": "µg/mL"}, {"measurement": "MBC", "setting": "P. avidum; [5]", "result": 1, "unit": "µg/mL"}, {"measurement": "MIC", "setting": "P. avidum; [5]", "result": 0.25, "unit": "µg/mL"}, {"measurement": "MBC", "setting": "P. avidum; [6]", "result": 1, "unit": "µg/mL"}, {"measurement": "MIC", "setting": "P. avidum; [6]", "result": 0.5, "unit": "µg/mL"}, {"measurement": "MBC", "setting": "P. avidum; [7]", "result": 2, "unit": "µg/mL"}, {"measurement": "MIC", "setting": "P. avidum; [7]", "result": 1, "unit": "µg/mL"}, {"measurement": "MBC", "setting": "P. avidum; [8]", "result": 0.50, "unit": "µg/mL"}, {"measurement": "MIC", "setting": "P. avidum; [8]", "result": 0.5, "unit": "µg/mL"}, {"measurement": "MBC", "setting": "P. avidum; [9]", "result": 2, "unit": "µg/mL"}, {"measurement": "MIC", "setting": "P. avidum; [9]", "result": 0.25, "unit": "µg/mL"}, {"measurement": "MBC", "setting": "P. avidum; [10]", "result": 2, "unit": "µg/mL"}, {"measurement": "MIC", "setting": "P. avidum; [10]", "result": 1, "unit": "µg/mL"}, {"measurement": "MBC", "setting": "P. avidum; [11]", "result": 2, "unit": "µg/mL"}, {"measurement": "MIC", "setting": "P. avidum; [11]", "result": 1, "unit": "µg/mL"}, {"measurement": "MBC", "setting": "P. avidum; [12]", "result": 1, "unit": "µg/mL"}, {"measurement": "MIC", "setting": "P. avidum; [12]", "result": 0.25, "unit": "µg/mL"}, {"measurement": "MBC", "setting": "P. avidum; [13]", "result": 2, "unit": "µg/mL"}, {"measurement": "MIC", "setting": "P. avidum; [13]", "result": 0.25, "unit": "µg/mL"}, {"measurement": "MBC", "setting": "P. avidum; [14]", "result": 2, "unit": "µg/mL"}, {"measurement": "MIC", "setting": "P. avidum; [14]", "result": 2, "unit": "µg/mL"}, {"measurement": "MBC", "setting": "P. avidum; [15]", "result": 4, "unit": "µg/mL"}, {"measurement": "MIC", "setting": "P. avidum; [15]", "result": 1, "unit": "µg/mL"}, {"measurement": "MBC", "setting": "P. avidum; [16]", "result": 0.50, "unit": "µg/mL"}, {"measurement": "MIC", "setting": "P. avidum; [16]", "result": 0.25, "unit": "µg/mL"}, {"measurement": "MBC", "setting": "P. avidum; [17]", "result": 1, "unit": "µg/mL"}, {"measurement": "MIC", "setting": "P. avidum; [17]", "result": 0.25, "unit": "µg/mL"}, {"measurement": "MBC", "setting": "P. avidum; [18]", "result": 1, "unit": "µg/mL"}, {"measurement": "MIC", "setting": "P. avidum; [18]", "result": 1, "unit": "µg/mL"}, {"measurement": "MBC", "setting": "P. avidum; [19]", "result": 1, "unit": "µg/mL"}, {"measurement": "MIC", "setting": "P. avidum; [19]", "result": 1, "unit": "µg/mL"}]}]}
